Source: patent US20190060261A1, “ACTIVE COMBINATIONS OF PERILLIC ACID AND ACTIVITY ENHANCING SUBSTANCES” (B.R.A.I.N BIOTECHNOLOGY RESEARCH AND INFORMATION NETWORK AG, priority 2016, published 2019)
Converted amounts (≈) assume the structure as drawn.

Tests used:
[1] = test system: Escherichia coli ATCC 8739; experiment: Minimal inhibition concentration (MIC), microdilution method adapted from DIN EN ISO 20776-1:2006; assay type: cell-based; settings: Escherichia coli, ATCC8739; Mueller-Hinton II Bouillon, 25 mM MES-buffer, 37° C., no growth after 24 h and 72 h; read-out: MIC [A to D] Escherichia coli
From the text: (§1) The antimicrobial activity of different substances was examined and compared to perillic acid in vitro using the microdilution method adapted from DIN EN ISO 20776-1:2006. Besides perillic acid and its sodium salt, other organic acids like levulinic acid, p-anisic acid, benzoic acid and sorbic acid as well as alkane-1,2-diols such as hexane-1,2-diol, octane-1,2-diol and decane-1,2-diol were studied. Additionally, the commonly used preservatives 2-phenoxyethanol, 2-phenylethanol and benzyl alcohol were investigated.
(§2) All experiments were done in 96-well plates in a final volume of 200 μL. Test solutions of the investigated compounds were prepared in 25 mM buffered water. The procedure was conducted as following: 4 μL of the particular stock solution were mixed with 196 μL culture medium containing a defined inoculum of the respective target strain. Sterile controls (not inoculated) and growth controls (buffer instead of compound added) were performed. All compound concentrations were tested in triplicate for several times. The following contamination germs were examined: Escherichia coli ATCC 8739, Pseudomonas aeruginosa ATCC 9027, Stapyhlococcus aureus ATCC®6538, Bacillus subtilis subsp. spizizenii ATCC®6633, Candida albicans ATCC®10231 and Aspergillus brasiliensis ATCC®16404. The strains were cultivated either in Mueller-Hinton II Bouillon (Escherichia coli, Pseudomonas aeruginosa, Staphylococcus aureus), in yeast peptone dextrose (Bacillus subtilis, Candida albicans) or in potato dextrose medium (Aspergillus brasiliensis). All culture media were buffered with 25 mM MES-buffer. For compound testing, the plates were incubated at 37° C. for Escherichia coli, Pseudomonas aeruginosa and Staphylococcus aureus, at 28° C. for Bacillus subtilis and Candida albicans, and at 25° C. for Aspergillus brasiliensis. Plates were evaluated after 24 h and 72 h, respectively. The minimal inhibitory concentration (MIC) is defined as the concentration where no microbial growth was observed after 24 h and 72 h incubation at the specified temperature.
(§3) MIC-values are given according to the following letter code.

[2] = test system: Escherichia coli; experiment: Combination of substances with perillic acid: reduction of the MIC of perillic acid; assay type: cell-based; settings: test compound combined with perillic acid; experiments as in Example 1
Protocol: as §2
(§4) Activity of perillic acid was comparably low against Gram-negative bacteria. It was thus tested whether the respective MIC could be reduced by combination of perillic acid with selected substances.
(§5) Experiments were performed as described for Example 1 above. A reduction factor was determined, expressing the reduction of the MIC of perillic acid that was achievable by combination with the combination partner. For example, a reduction factor of 2 means that the MIC of perillic acid was reduced by a factor of 2 by combination of perillic acid with the respective activity enhancing substance.

[3] = test system: Pseudomonas aeruginosa; experiment: as above; assay type: cell-based; settings: test compound combined with perillic acid; experiments as in Example 1
Protocol: as §2, §4, §5

[4] = test system: Stapyhlococcus aureus ATCC®6538; experiment: Minimal inhibition concentration (MIC), microdilution method; assay type: cell-based, Staphylococcus aureus; settings: Mueller-Hinton II Bouillon, 25 mM MES-buffer, 37° C., no growth after 24 h and 72 h
From the text: as §1, §2, §3

[5] = test system: Candida albicans ATCC®10231; experiment: Conservation efficacy test according to DIN EN ISO 11930 in cosmetic formulation; assay type: cell-based; settings: cosmetic formulation (oil-water-emulsion), day 0 to day 28
Protocol: (§6) The composition of the formulations was in general as follows (ingredient amounts according to the FDA-code):
(§7) In order to confirm the activity against Gram-positive and Gram-negative bacteria, yeasts and moulds, conservation efficacy tests were performed according to DIN EN ISO 11930. The following classical contamination germs were examined: Escherichia coli (Ec in FIGS. 1 and 2) ATCC®8739, Pseudomonas aeruginosa (Pa in FIGS. 1 and 2) ATCC®9027, Stapyhlococcus aureus (Sa in FIGS. 1 and 2) ATCC®6538, Candida albicans (Ca in FIGS. 1 and 2) ATCC®10231 and Aspergillus brasiliensis (Ab in FIGS. 1 and 2) ATCC®16404. Media composition, incubation conditions and dilution procedures were all conducted according to the guidelines.
(§8) Data are presented as line graphs. […] The tested contamination germs are identified by different symbols as indicated in the diagrams with the following abbreviations: […]

[6] = test system: Pseudomonas aeruginosa ATCC®9027; experiment: as above; assay type: cell-based; settings: cosmetic formulation (oil-water-emulsion), day 0 to day 28
Protocol: as §6, §7, §8

[7] = test system: Bacillus subtilis subsp. spizizenii ATCC®6633; experiment: Minimal inhibition concentration (MIC), microdilution method; assay type: cell-based; settings: Bacillus subtilis, ATCC6633; yeast peptone dextrose, 25 mM MES-buffer, 28° C., no growth after 24 h and 72 h; read-out: MIC [A to D] Bacillus subtilis
From the text: as §1, §2, §3

[8] = test system: Candida albicans ATCC®10231; experiment: as above; assay type: cell-based; settings: yeast peptone dextrose, 25 mM MES-buffer, 28° C., no growth after 24 h and 72 h
From the text: as §1, §2, §3

[9] = test system: Aspergillus brasiliensis ATCC®16404; experiment: as above; assay type: cell-based; settings: Aspergillus brasiliensis, ATCC16404; potato dextrose medium, 25 mM MES-buffer, 25° C., no growth after 24 h and 72 h; read-out: MIC [A to D] Aspergillus brasiliensis
From the text: as §1, §2, §3

[10] = test system: Pseudomonas aeruginosa ATCC 9027; experiment: as above; assay type: cell-based; settings: Pseudomonas aeruginosa, ATCC9027; Mueller-Hinton II Bouillon, 25 mM MES-buffer, 37° C., no growth after 24 h and 72 h; read-out: MIC [A to D] Pseudomonas aeruginosa
From the text: as §1, §2, §3

[11] = test system: Stapyhlococcus aureus ATCC®6538; experiment: Conservation efficacy test according to DIN EN ISO 11930 in cosmetic formulation; assay type: cell-based, Staphylococcus aureus; settings: cosmetic formulation (oil-water-emulsion), day 0 to day 28
Protocol: as §6, §7, §8

[12] = test system: Aspergillus brasiliensis ATCC®16404; experiment: as above; assay type: cell-based; settings: cosmetic formulation (oil-water-emulsion), day 0 to day 28
Protocol: as §6, §7, §8

[13] = test system: Escherichia coli ATCC®8739; experiment: as above; assay type: cell-based; settings: cosmetic formulation (oil-water-emulsion), day 0 to day 28
Protocol: as §6, §7, §8

Row | SMILES | MIC [1] [µg/mL] | Reduction factor (reduction of the MIC of perillic acid by combination with the test compound) Escherichia coli [2] | Reduction factor (reduction of the MIC of perillic acid by combination with the test compound) Pseudomonas aeruginosa [3] | MIC [A to D] Staphylococcus aureus [4] | criteria for an adequate conservation against C. albicans [5] | criteria for an adequate conservation against P. aeruginosa [6] | MIC [7] [µg/mL] | MIC [A to D] Candida albicans [8] | MIC [9] [µg/mL] | MIC [10] [µg/mL] | criteria for an adequate conservation against S. aureus [11] | criteria for an adequate conservation against A. brasiliensis [12] | criteria for an adequate conservation against E. coli [13]
1 | CCCCCCC(O)CO (centres unmarked) [Octane-1,2-diol] | 5000 to 10000 (≈ 34.2 to 68.4 mM) | 2000 | 2000 | A (MIC>1% (w/v)) | does not fulfill the criteria | does not fulfill the criteria | 1000 to 5000 (≈ 6.84 to 34.2 mM) | A (MIC>1% (w/v)) | 1000 to 5000 (≈ 6.84 to 34.2 mM) | 1000 to 5000 (≈ 6.84 to 34.2 mM) |  |  | 
2 | C=C(C)[C@@H]1CC=C(C(=O)O)CC1 [Perillic acid] |  |  |  |  | fulfills the criteria |  |  |  |  |  | fulfills the criteria | fulfills the criteria | fulfills the criteria
